The values below come from US20160228489A1, “PHARMACEUTICAL COMPOSITION FOR THE PREVENTION AND THE TREATMENT OF DEGENERATIVE SKIN DISORDERS ESPECIALLY CAUSED BY IONIZING RADIATIONS” (SOLOSALE S.R.L., priority 2011, published 2016).

The first experiment concerns Cultured skin fibroblasts exposed to UV rays. The experiment is described as follows: cultured skin fibroblasts exposed to UV rays: intracellular GSH and cell survival. The class given is cell-based. The following applies: fibroblasts exposed to UV rays; 3 h incubation with formulation containing 100 μM S-acyl-glutathione; UV without compound 10, unexposed control 100.
On to `CC/C=C\C/C=C\C/C=C\CCCCCCCC(=O)N[C@@H](CCC(=O)N[C@@H](CSC(=O)CCCCCCC/C=C\C/C=C\C/C=C\CC)C(=O)NCC(=O)O)C(=O)O` [S,N-di-linolenoyl-S-glutathione], for which the “cell survival, % (24 h after end of irradiation)” value (shortened to “cell survival, %”) is 98%. On to `CCCCC/C=C\C/C=C\C/C=C\C/C=C\CCCC(=O)SC[C@H](NC(=O)CC[C@H](N)C(=O)O)C(=O)NCC(=O)O` [arachidonoyl-S-glutathione], for which the “cell survival, %” value is 100%. Take `CC/C=C\C/C=C\C/C=C\CCCCCCCC(=O)SCC(NC(=O)CCC(N)C(=O)O)C(=O)NCC(=O)O` (stereo not shown) [linolenoyl-S-glutathione]: the “cell survival, %” value came out at 97%. As for `CCCCC/C=C\C/C=C\CCCCCCCC(=O)SC[C@H](NC(=O)CC[C@H](N)C(=O)O)C(=O)NCC(=O)O` [linoleyl-S-glutathione], the “cell survival, %” value came to 63%. On the same count and under the same terms, then `CCCCCCCC/C=C\CCCCCCCC(=O)SC[C@H](NC(=O)CC[C@H](N)C(=O)O)C(=O)NCC(=O)O` [oleyl-S-glutathione], with 35%.

The same experiment, now with this note: fibroblasts exposed to UV rays; 3 h incubation with formulation containing 100 μM S-acyl-glutathione; UV without compound 30, unexposed control 100.
On to `CC/C=C\C/C=C\C/C=C\CCCCCCCC(=O)N[C@@H](CCC(=O)N[C@@H](CSC(=O)CCCCCCC/C=C\C/C=C\C/C=C\CC)C(=O)NCC(=O)O)C(=O)O` [S,N-di-linolenoyl-S-glutathione], for which the “intracellular GSH, % compared to controls (3 h after incubation)” value (“intracellular GSH, %” for short) worked out at 113%.

In the case of `CCCCC/C=C\C/C=C\C/C=C\C/C=C\CCCC(=O)SC[C@H](NC(=O)CC[C@H](N)C(=O)O)C(=O)NCC(=O)O` [arachidonoyl-S-glutathione], the “intracellular GSH, %” value is given as 115%. For the molecule `CC/C=C\C/C=C\C/C=C\CCCCCCCC(=O)SCC(NC(=O)CCC(N)C(=O)O)C(=O)NCC(=O)O` (stereo not shown) [linolenoyl-S-glutathione], the “intracellular GSH, %” value was determined as 115%. For `CCCCC/C=C\C/C=C\CCCCCCCC(=O)SC[C@H](NC(=O)CC[C@H](N)C(=O)O)C(=O)NCC(=O)O` [linoleyl-S-glutathione], the “intracellular GSH, %” value is 110%. On the same count and under the same terms, then `CCCCCCCC/C=C\CCCCCCCC(=O)SC[C@H](NC(=O)CC[C@H](N)C(=O)O)C(=O)NCC(=O)O` [oleyl-S-glutathione], with 85%.

The experiment is the same for the next values; noted with them: similar experiments, same concentrations.
With `Cc1c(C)c2c(c(C)c1O)CCC(C)(C(=O)O)O2` (stereo not shown) [Trolox®, reference compound], the “effectiveness for increase of intracellular GSH and of cell survival following exposure to ultraviolet radiation (in words)” value (“effectiveness for increase” below) is on record as “did not produce significant effects”. Turning to `O=C1O[C@H]([C@@H](O)CO)C(O)=C1O` [ascorbic acid, reference compound], the “effectiveness for increase” value is “did not produce significant effects”.

In the case of `CC/C=C\C/C=C\C/C=C\C/C=C\C/C=C\C/C=C\CCC(=O)O` [docosahexaenoic acid], the “effectiveness for increase” value is “results similar to those obtained with linolenic and arachidonic acids”. Consider `CC/C=C\C/C=C\C/C=C\C/C=C\C/C=C\CCCC(=O)SC[C@H](NC(=O)CC[C@H](N)C(=O)O)C(=O)NCC(=O)O` [eicosapentaenoic acid, eicosapentaenoyl-S-glutathione], for which the “effectiveness for increase” value was “results similar to those obtained with linolenic and arachidonic acids”. `Oc1ccc(C=Cc2cc(O)cc(O)c2)cc1` [resveratrol, reference compound]: the “effectiveness for increase” value is given as “did not produce significant effects”.

For vitamin E [reference compound], the “effectiveness for increase” value was “did not produce significant effects”.
